Measurements: PMC11801377, “A uniquely efficacious type of CFTR corrector with complementary mode of action” (Science Advances, 2024)

Experiments:
[1] = biological target: T1, I507del CFTR (Homo sapiens, UniProt P13569, DEL507-507); test: CFTR correction (immunoblotting), HEK-TREx, I507del; assay type: cell-based; details: 48 hours, IDOR-3 2 μM, IDOR-4 0.4 μM, TEZ 2 μM + ELX 0.4 μM
T1 construct: expressed in transfected cells; host or cells: T-REx HEK293
Description: (§1) The human CFTR expressing HEK cell pools with the mutations described below were generated by integrase-mediated homologous recombination of the CFTR sequence into the T-REx HEK293 background (Thermo Fisher Scientific). This expression system allows the tetracycline-inducible expression of genes of interest from one defined insertion site. Parental T-REx-HEK293 cells were cultivated in growth medium: Dulbecco’s modified Eagle’s medium + GlutaMAX-I (#31966, Life Technologies), 10% dialyzed FBS (Gibco, #26400), penicillin (100 U/ml), streptomycin (100 μg/ml), hygromycin B (0.1 mg/ml; Life Technologies), blasticidin (5 μg/ml; Invitrogen, #R210-01), and 0.1 mM nonessential amino acid solution (Invitrogen, #11140-035). Recombinant T-REx-HEK-CFTR cells were generated by lipofectamine transfection (Life Technologies) of plasmids containing mutated versions of CFTR (RefSeq NM_000492) and then cultivated in selection medium [growth medium containing Geneticin (1 mg/ml) (Invitrogen, #10131-027) instead of hygromycin]. The plasmid constructs were synthetized by GENEART (Thermo Fisher Scientific) and designed with the WT CFTR intron 5 to 6 (880 nucleotides) to prevent leaky expression issues during the cloning process in bacteria. […]

[2] = biological target: T2, R1066C CFTR (Homo sapiens, UniProt P13569, R1066C); test: CFTR correction (immunoblotting), HEK-TREx, R1066C; assay type: cell-based; details: 48 hours, IDOR-3 2 μM, IDOR-4 0.4 μM, TEZ 2 μM + ELX 0.4 μM
T2 construct: expressed in transfected cells; host or cells: T-REx HEK293
Description: as §1

[3] = test system: F508del.K14A-CFTR; test: Site-directed mutagenesis immunoblotting, HEK-TREx, F508del.K14A-CFTR; assay type: cell-based, human; details: 40 h, 2 μM
Description: as §1

[4] = biological target: T3, F508del-CFTR-G550E.R553M.R555K.R1070W (3TS + RW) (Homo sapiens, UniProt P13569, DEL508-508/G550E/R1070W/R553M/R555K); test: CFTR immunoblotting in HEK-TREx cells expressing F508del-CFTR 3TS + RW; assay type: cell-based; details: 48 hours
T3 construct: expressed in transfected cells; host or cells: T-REx HEK293
Description: as §1

T3 sequence (P13569 with tags, fused parts or gaps DEL508-508/G550E/R553M/R555K/R1070W): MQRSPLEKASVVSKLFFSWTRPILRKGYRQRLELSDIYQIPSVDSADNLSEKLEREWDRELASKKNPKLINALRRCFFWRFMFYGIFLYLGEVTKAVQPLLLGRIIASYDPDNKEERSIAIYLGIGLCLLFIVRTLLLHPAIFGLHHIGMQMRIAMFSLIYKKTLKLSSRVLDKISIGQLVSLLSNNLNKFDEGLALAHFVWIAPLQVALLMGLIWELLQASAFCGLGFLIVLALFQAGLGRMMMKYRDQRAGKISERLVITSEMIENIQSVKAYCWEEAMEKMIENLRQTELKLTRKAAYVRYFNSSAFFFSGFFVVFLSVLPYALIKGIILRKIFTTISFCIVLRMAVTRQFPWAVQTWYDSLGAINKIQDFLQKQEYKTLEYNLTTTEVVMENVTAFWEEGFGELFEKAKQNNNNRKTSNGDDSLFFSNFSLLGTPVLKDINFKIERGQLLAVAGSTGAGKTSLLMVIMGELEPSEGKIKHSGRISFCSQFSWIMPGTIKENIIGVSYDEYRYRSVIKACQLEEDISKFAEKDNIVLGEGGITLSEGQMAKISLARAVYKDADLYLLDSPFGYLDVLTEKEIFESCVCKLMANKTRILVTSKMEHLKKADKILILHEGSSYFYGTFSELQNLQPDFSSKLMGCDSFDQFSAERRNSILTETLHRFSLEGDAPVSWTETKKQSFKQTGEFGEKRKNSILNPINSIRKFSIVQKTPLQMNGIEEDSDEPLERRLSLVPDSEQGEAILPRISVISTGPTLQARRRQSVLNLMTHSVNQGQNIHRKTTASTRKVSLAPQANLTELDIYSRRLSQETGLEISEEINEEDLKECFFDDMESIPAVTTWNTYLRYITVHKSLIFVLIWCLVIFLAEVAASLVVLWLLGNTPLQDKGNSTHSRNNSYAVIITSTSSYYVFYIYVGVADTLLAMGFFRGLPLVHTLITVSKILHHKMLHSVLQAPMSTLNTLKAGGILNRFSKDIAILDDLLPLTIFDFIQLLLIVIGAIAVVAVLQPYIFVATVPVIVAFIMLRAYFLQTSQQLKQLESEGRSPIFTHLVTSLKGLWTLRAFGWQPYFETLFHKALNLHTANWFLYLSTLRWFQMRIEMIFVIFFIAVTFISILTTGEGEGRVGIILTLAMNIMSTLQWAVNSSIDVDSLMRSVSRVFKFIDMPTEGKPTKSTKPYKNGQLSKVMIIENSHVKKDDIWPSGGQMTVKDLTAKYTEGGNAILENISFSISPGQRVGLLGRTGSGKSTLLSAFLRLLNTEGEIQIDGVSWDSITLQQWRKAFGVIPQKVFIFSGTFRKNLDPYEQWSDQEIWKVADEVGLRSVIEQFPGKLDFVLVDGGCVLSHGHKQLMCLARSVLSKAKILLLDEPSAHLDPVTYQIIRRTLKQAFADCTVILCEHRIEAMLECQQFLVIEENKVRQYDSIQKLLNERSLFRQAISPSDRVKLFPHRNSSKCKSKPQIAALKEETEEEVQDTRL
T2 sequence (P13569 whole entry R1066C): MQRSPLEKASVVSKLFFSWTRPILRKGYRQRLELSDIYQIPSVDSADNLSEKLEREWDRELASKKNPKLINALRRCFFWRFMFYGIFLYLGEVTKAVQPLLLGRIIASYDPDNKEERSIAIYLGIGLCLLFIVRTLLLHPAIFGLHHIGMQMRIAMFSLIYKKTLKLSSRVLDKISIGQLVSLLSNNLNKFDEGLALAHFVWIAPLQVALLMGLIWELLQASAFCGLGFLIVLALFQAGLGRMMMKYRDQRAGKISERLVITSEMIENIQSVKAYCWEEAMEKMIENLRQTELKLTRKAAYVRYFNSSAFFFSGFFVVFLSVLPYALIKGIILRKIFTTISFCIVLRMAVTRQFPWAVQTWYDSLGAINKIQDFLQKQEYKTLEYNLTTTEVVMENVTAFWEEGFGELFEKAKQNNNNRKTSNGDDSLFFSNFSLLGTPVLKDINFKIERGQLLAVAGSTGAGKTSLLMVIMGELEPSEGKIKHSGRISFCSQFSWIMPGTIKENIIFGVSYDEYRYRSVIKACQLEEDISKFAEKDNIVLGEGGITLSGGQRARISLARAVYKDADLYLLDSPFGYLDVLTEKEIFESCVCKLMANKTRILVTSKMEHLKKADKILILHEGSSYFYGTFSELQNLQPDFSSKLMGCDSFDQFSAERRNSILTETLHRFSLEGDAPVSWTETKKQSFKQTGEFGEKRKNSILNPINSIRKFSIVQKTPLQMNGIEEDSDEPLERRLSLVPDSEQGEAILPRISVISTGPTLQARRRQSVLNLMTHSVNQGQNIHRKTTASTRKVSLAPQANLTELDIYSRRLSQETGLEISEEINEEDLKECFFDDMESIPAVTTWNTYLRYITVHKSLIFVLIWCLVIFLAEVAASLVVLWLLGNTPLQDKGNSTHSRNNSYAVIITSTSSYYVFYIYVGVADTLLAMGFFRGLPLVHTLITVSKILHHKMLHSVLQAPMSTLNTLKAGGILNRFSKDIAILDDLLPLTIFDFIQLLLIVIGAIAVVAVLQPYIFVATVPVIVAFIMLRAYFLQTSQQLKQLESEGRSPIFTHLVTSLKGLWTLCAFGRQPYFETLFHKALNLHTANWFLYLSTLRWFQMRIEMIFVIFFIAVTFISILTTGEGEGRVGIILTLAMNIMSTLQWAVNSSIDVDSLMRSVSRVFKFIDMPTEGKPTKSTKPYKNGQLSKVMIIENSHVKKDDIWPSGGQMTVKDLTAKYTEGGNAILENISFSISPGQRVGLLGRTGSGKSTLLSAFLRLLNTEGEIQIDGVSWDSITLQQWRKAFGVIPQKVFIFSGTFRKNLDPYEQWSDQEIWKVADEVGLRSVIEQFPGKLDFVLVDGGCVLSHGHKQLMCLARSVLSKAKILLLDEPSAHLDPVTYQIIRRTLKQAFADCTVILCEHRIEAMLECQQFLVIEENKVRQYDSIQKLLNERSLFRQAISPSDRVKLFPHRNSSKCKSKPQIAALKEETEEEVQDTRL
T1 sequence (P13569 with tags, fused parts or gaps DEL507-507): as the sequence (P13569 with tags, fused parts or gaps DEL508-508/G550E/R553M/R555K/R1070W) above, with I507F, E549G, M552R, K554R, W1069R counted along it

correction of I507del [1]: highly effective | correction of R1066C [2]: highly effective | effect of introduction of the RW mutation on C-band expression [4]: no additional effect
Compound: COc1cc(CCNC(=O)C2CC(=O)N(C)C(CC(C)C)C(=O)N3CCCCC3C(=O)NC(Cc3ccccc3)COc3ccc4ncc(F)cc4c3C(=O)N2)on1 (stereo not shown) [IDOR-3]
weaker correction by macrocycles as compared to [LUM + BAM] [3]: two- to fourfold
